Measurements taken from US20130210786A1, “TREATMENT OF L-DOPA, DOPAMINE AGONIST AND/OR DOPAMINE ENHANCER INDUCED DISORDERS” (priority 2010, published 2013).

What was measured:
MPTP-lesioned macaques [1] = assay: L-DOPA induced dyskinesia (LID) in MPTP-lesioned macaques, monkey dyskinesia rating scale; type: in vivo, Macaca fascicularis; settings: group 1 (L-DOPA+vehicle); challenge with L-DOPA 12, 20, 30 or 40 mg/kg p.o.
Protocol: Ten female cynomolgus monkeys (macaques) (Macaca fascicularis, 3.0-4.5 kg, 4-6 years old) were acclimatised to the experimental setting and procedures for 3 months and baseline behaviour was assessed in all animals. The macaques received MPTP (0.2 mg/kg/day, s.c.) until moderate-marked, stable, parkinsonian symptoms developed.
Following stabilisation of parkinsonian disability, the macaques were administered L-DOPA (Madopar, 20 mg/kg b.i.d., p.o.) for 19 weeks before being administered L-DOPA+vehicle (hydroxypropylmethylcellulose, HPMC, 0.5% w/v containing Tween 80, 0.2% v/v, group 1, n=5) or L-DOPA+smilagenin (20 mg/kg/day, p.o., group 2, n=5) for a further 18 weeks. Smilagenin was then washed out for 10 weeks and all the macaques received only L-DOPA twice daily over this 10 week period.
Following the 10 week washout, the macaques were challenged with L-DOPA (6, 12, 20, 30 or 40 mg/kg, p.o.) or vehicle and the level of dyskinesia over the subsequent 6 h period was assessed by a neurologist blinded to treatment using a monkey dyskinesia rating scale. […] Each macaque received a challenge once every 3 days and received every challenge (vehicle and L-DOPA, 6, 12, 20, 30 or 40 mg/kg) in a randomised order over the course of the experiment. On the days between challenges, the macaques received L-DOPA (20 mg/kg, b.i.d., p.o.) as normal.
The MPTP-lesioned and L-DOPA treated macaques used in this experiment provide an accepted model for L-DOPA-induced dyskinesia.

MPTP-lesioned macaques [2] = assay: On-time (time without bradykinesia) in MPTP-lesioned macaques after L-DOPA challenge; type: in vivo, Macaca fascicularis; settings: both groups; L-DOPA challenge 6-40 mg/kg p.o.
Protocol: Analysis was performed using a two-way ANOVA with group and L-DOPA dose as factors.

## N[C@@H](Cc1ccc(O)c(O)c1)C(=O)O [L-DOPA, L-3,4-dihydroxyphenylalanine]
MPTP-lesioned macaques [1]
  Dyskinesia following challenge with L-DOPA: dose-dependent dyskinesia up to the 30 mg/kg dose
MPTP-lesioned macaques [2]
  Effect of L-DOPA on amount of on-time: increased the amount of on-time
